The record followed here is the METLIN SMRT retention time set (Domingo-Almenara et al. 2019).

The nature of this data set: gradient 5% acetonitrile 3 min, to 50% in 2 min, to 85% in 15 min, held 3 min, 100 µL/min. The settings on record: column: Zorbax Extend-C18 2.1 x 50 mm; eluents: water / acetonitrile, 0.1% formic acid. The method, boiled down:
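In both positive and negative ionization mode, a quadrupole time-of-flight mass spectrometer coupled to HPLC analyzed pure standards run in mixtures of ~100 molecules. The Zorbax Extend-C18 column (2.1 × 50 mm, 1.8 μm) was operated at 100 μL/min with water and acetonitrile, each containing 0.1% formic acid. The dead volume was 40 μL and the dwell volume 900 μL. Retention time came from adduct peaks that were computationally picked and individually inspected by hand.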
On to `COc1ccc(NC(=O)N2CCC3(CC2)NC(=O)c2ccc(F)cc2N3C)cc1`, for which the RP-LC retention time came out at 727 s.

In turn, `Cc1ccn2cc(-c3ccc(NC(=O)c4cccc(Cl)c4)cc3)nc2n1` yielded an RP-LC retention time of 678 s.

On to `CC(NC(=O)c1c(O)c2cccnc2n(-c2cccc(F)c2)c1=O)c1ccc(F)cc1` (centres undefined), for which the RP-LC retention time was found to be 1210 s.

For the molecule `Cc1ccc(CNC(=O)N2C[C@@H](F)C[C@H]2C(=O)N2CCc3ccccc3C2)cc1`, the RP-LC retention time was determined as 887 s.

Molecule `Cc1oc(-c2[nH]ncc2C(=O)N2CCCC2)cc1S(=O)(=O)NCc1ccccc1` displayed an RP-LC retention time of 700 s.

For `Cc1noc(C)c1S(=O)(=O)N1CCC(c2nn(C)c(=O)n2C2CCCC2)CC1`, the RP-LC retention time came out at 856 s.

With `COc1ccc(NC(=O)C2CCN(S(C)(=O)=O)c3cc(C)ccc3O2)cc1` (centres undefined), the RP-LC retention time was 872 s.

The molecule `CC(C)C(=O)Nc1ccc(C2(C(=O)N(C)Cc3ccccc3)CCCCC2)cc1` came in with an RP-LC retention time of 1080 s.

For the molecule `CCCNC(=O)C1CCN(c2nc3ccsc3c(=O)n2-c2cccc(OC)c2)CC1`, the RP-LC retention time amounted to 675 s.

For `CC(=O)N1CCN(c2nc3c(s2)CC(C(=O)N2CCC(C)CC2)CC3)CC1` (centres undefined), the RP-LC retention time was 537 s.

Molecule `Fc1cc(F)cc(-c2nnc(Cc3nc(-c4cccc(C(F)(F)F)c4)no3)o2)c1` registered an RP-LC retention time of 851 s.

For the molecule `CCN(Cc1ccccc1)C(=O)CN1C(=O)C2CCCCN2c2ccc(C(=O)N3CCCC3)cc21` (centres undefined), the RP-LC retention time came to 892 s.

As to `O=C(Cn1cccc1-c1nnc(-c2ccccc2)o1)NCc1cccnc1`, the RP-LC retention time came to 617 s.

As for `O=C(NCc1ccc(C(F)(F)F)cc1)C1CCCN(c2nccnc2Oc2ccccc2)C1` (centres undefined), the RP-LC retention time amounted to 1040 s.

`Cc1ccc(C(=O)NCC2CN(C(C)C)CC23CCCCC3)s1` (centres undefined) yielded an RP-LC retention time of 670 s.

`COc1ccc(-c2ccnc3nc(CC(C)C)nn23)cc1` had an RP-LC retention time of 905 s.

In turn, `CC1=C(c2ccc(F)cc2)S(=O)(=O)N=C1N1CCCN(C(=O)NC2CCCCC2)CC1` came in with an RP-LC retention time of 845 s.

Take `CCOc1ccc(NC(=O)CSC2=C(C#N)C(c3cccs3)CC(=O)N2)cc1` (centres undefined): the RP-LC retention time worked out at 844 s.

Take `CSc1nnc(C)c(=O)n1COC(=O)c1cc(C(F)(F)F)cc(C(F)(F)F)c1`: the RP-LC retention time is 932 s.

`CCCN(CC1CCOC1)C(=O)Nc1cccc(F)c1C` (centres undefined) came in with an RP-LC retention time of 758 s.

Turning to `COc1ccc2[nH]cc(CCn3ccc4c(nnc5ccnn54)c3=O)c2c1`, the RP-LC retention time was 686 s.

The molecule `O=C(NCCS(=O)(=O)N1CCc2ccccc2C1)C1CC(=O)N(c2ccc(F)cc2)C1` (centres undefined) had an RP-LC retention time of 732 s.

As for `Clc1ccc(OCc2nc3c4ccccc4ncn3n2)cc1`, the RP-LC retention time was found to be 951 s.

As for `Cc1ccc(N2C=C(C(=O)N3CCCC3)S(=O)(=O)c3ccc(F)cc32)cc1`, the RP-LC retention time worked out at 799 s.

With `CCn1nc(C(=O)Nc2nnc(-c3cc4ccccc4o3)o2)cc1C`, the RP-LC retention time was determined as 770 s.

Molecule `O=C(Cn1nc2c3cc(-c4ccc(F)cc4)nn3ccn2c1=O)N1CCCc2ccccc21` returned an RP-LC retention time of 968 s.

Molecule `COc1ncc(C(=O)NCCc2ccc(Cl)cc2)cn1` returned an RP-LC retention time of 788 s.

In turn, `Cc1ccc(CC(=O)N2CCC3(CC2)NC(=O)c2cccc(Cl)c2N3)cc1` had an RP-LC retention time of 812 s.

`COc1ccc(-c2csc(C)n2)cc1S(=O)(=O)N1CC=C(c2ccccc2)CC1`: the RP-LC retention time was 1130 s.

Molecule `Cc1nc(-c2cc(S(=O)(=O)N3CCN(c4ccccc4Cl)CC3)c(C)s2)cs1` yielded an RP-LC retention time of 1240 s.

As to `COc1ccc(-c2nc(COc3cc(C)c4c(C)nn(C)c4n3)c(C)o2)cc1`, the RP-LC retention time was found to be 1120 s.

`CC1CCC(NC(=O)C2CCN(C(=O)c3ncn4c3COC(c3ccccc3)C4)CC2)CC1` (centres undefined): the RP-LC retention time was found to be 816 s.

Take `CCN1C(=O)Cc2cc(C(=O)N3CCN(c4ccccn4)CC3)ccc21`: the RP-LC retention time amounted to 780 s.

Take `Cc1noc([C@@H]2CC(F)(F)CN2C(=O)c2ccoc2C)n1`: the RP-LC retention time stood at 756 s.

In the case of `COc1nn(C)cc1C(=O)Nc1cc(C(F)(F)F)ccc1Cl`, the RP-LC retention time amounted to 980 s.

In the case of `O=C(NCc1ccc(F)cc1)C(=O)NCC1OCCN1C(=O)c1cccs1` (centres undefined), the RP-LC retention time came to 702 s.

As for `COc1nn(C)cc1-c1nnc(SCC(=O)NCc2ccc(F)cc2)n1C`, the RP-LC retention time came out at 594 s.

On to `CCCn1cnc2ccc(-c3noc(-c4cccc(OC)c4)n3)cc21`, for which the RP-LC retention time is 728 s.

For the molecule `CC(=O)c1ccc(NC(=O)c2cnn(-c3ccc(Br)cc3)c2)cc1`, the RP-LC retention time came out at 948 s.

Molecule `CCOC(=O)c1ccccc1NC(=O)N1CCOc2ccc(C)cc21` registered an RP-LC retention time of 1220 s.

In turn, `O=S(=O)(c1ccc2c(c1)-c1oncc1CO2)N1CCN(C2CCCCC2)CC1` came in with an RP-LC retention time of 640 s.

`Brc1cccc(-c2nc3ccccn3c2Nc2ccc3c(c2)OCO3)c1` returned an RP-LC retention time of 726 s.

With `Cc1nnc(N2CCCC(C(=O)NCCCc3ccccc3)C2)c2nn(-c3ccccc3)c(C)c12` (centres undefined), the RP-LC retention time is 762 s.

For the molecule `O=C(CCn1cnc2cc(-c3noc(-c4ccc(Cl)cc4)n3)ccc21)N1CCOCC1`, the RP-LC retention time was 754 s.

For `CCCOc1ccc(CNC(=O)c2cnc(OC)nc2)cc1`, the RP-LC retention time stood at 803 s.

In the case of `CCn1nccc1-c1cccc(-c2noc(-c3ccc(C)s3)n2)c1`, the RP-LC retention time was 1250 s.

`CCn1ccc2oc(C)c(C(=O)NCc3ccc(C(C)C)cc3)c2c1=O` showed an RP-LC retention time of 1130 s.

`Cc1nc2c(ccc3nc(NC(=O)NC4CCCC4)sc32)s1` had an RP-LC retention time of 785 s.

`CC(C)c1nc(NC(=O)Cn2nc3c(cc2=O)CCCCC3)n[nH]1` had an RP-LC retention time of 632 s.

With `Cn1cnc(C(=O)N2CC(c3nc(CCOCC4CCOCC4)no3)C2)c1`, the RP-LC retention time stood at 579 s.

Consider `CCn1c(=O)c(N2CCC(NC(=O)NCc3ccc(F)cc3)CC2)nc2cccnc21`, for which the RP-LC retention time came out at 850 s.

Consider `CCN(CC)S(=O)(=O)c1cc(-c2nnc(-c3ccccc3Cl)o2)ccc1OC`, for which the RP-LC retention time is 1040 s.

The molecule `CC(C)Oc1ccc(-c2noc(CN3N=NC4C(=O)N(c5ccccc5)C(=O)C43)n2)cc1` (centres undefined) returned an RP-LC retention time of 1020 s.

On to `O=C(Nc1ccsn1)c1ccc(Cl)cc1Cl`, for which the RP-LC retention time is 874 s.

Molecule `CC(=O)Nc1ccc(C(=O)NCc2cccs2)c(N2CCCCC2)c1` registered an RP-LC retention time of 676 s.

As to `Cc1nn(CC(=O)NCc2ccc(F)cc2F)c(=O)c2nc(-c3ccccc3)sc12`, the RP-LC retention time was determined as 914 s.

`O=S(=O)(c1ccccc1Cl)N1CC(COc2ccncc2)C2(CCOCC2)C1` (centres undefined): the RP-LC retention time was found to be 574 s.

Regarding `CCN1CCCn2cc(S(=O)(=O)Nc3ccccc3C)cc2C1=O`, the RP-LC retention time came out at 720 s.

For `COc1cc(Cl)c(C)cc1NC(=O)Cn1ncc2c(N3CCN(c4ccccn4)CC3)ncnc21`, the RP-LC retention time was 678 s.
